Test system: 5-LOX mediated LT biosynthesis
Assay: LT biosynthesis inhibition assay in activated neutrophile granulocytes, LTB4 EIA
Assay type: cell-based, human
Details: for IC50 / inhibition at 50 µM: Homo sapiens; for inhibition at 50 µM: screening concentration 50 μM
Description: 1.) LT biosynthesis inhibition assay
The assay was performed as described in [Michael Adams, Olaf Kunert, Ernst Haslinger, Rudolf Bauer: Inhibition of Leukotriene Biosynthesis by Quinolone Alkaloids from the Fruits of Evodia Rutaecarpa; Planta med. 2004 (70): 904-908] with some modifications.
Principle: Activated neutrophile granulocytes with 5-LOX activity are incubated with a defined concentration of test sample and arachidonic acid. After stopping the enzymatic reaction by addition of formic acid and centrifugation to remove cellular fragments, the produced LTB4 is quantified in the supernatant by means of an LTB4 EIA kit.
Isolation of human neutrophile granulocytes: 30 ml of venous human blood from healthy voluntary donors are collected with a Vacutainer™ (BD, Plymouth, UK) system containing a 0.219 M pre-analytical citric acid solution. The blood is immediately transferred to a falcon tube containing 20 ml of sedimentation solution (1% NaCl, 6% dextran T-500) and left to separate for 60 min at 4° C. While most of the dense erythrocytes sink into the dextran layer, the lighter blood fractions remain in the upper layer which is then removed and centrifuged at 1600 rpm (4° C., 10 min) to concentrate the leukocytes. The plasma supernatant is discarded, the pellet is resuspended in 10 ml of a wash buffer (10% CaCl2.2H2O p.a.; 0.1% anhydrous d-glucose; 0.2% MgCl2.6H2O; 0.04% KCl; 1.75% TRIS p.a.; with the pH adjusted to 7.6 with 1N HCl). After centrifugation at 1400 rpm (4° C., 10 min) and removal of the supernatant the resulting pellet is resuspended in 10 ml of a hypotonic lysis buffer (0.17% NH4Cl; 0.2% TRIS; pH 7.2) and gently shaken for 5 min at room temperature to destroy remaining erythrocytes. The suspension is submitted to another centrifugation at 1400 rpm (4° C., 5 min). The pellet is resuspended in 10 ml of wash buffer and then centrifuged at 1400 rpm (4° C., 15 min). The resulting pellet which now mainly contains neutrophile granulocytes is resuspended in 2 ml of TRIS buffer (1.75% TRIS p.a., 0.9% NaCl, pH 7.4), tested for vitality, quantified and then diluted to a cell concentration of 4500 cells/ml with TRIS buffer.
Cell vitality test: 50 μl of cell suspension and 10 μl of trypan blue solution (0.4%) (Sigma Chemical Co. Steinheim, Germany) are mixed on a glass object carrier and examined with a light microscope at 1000 fold magnification. Dead cells appear larger and darker due to absorption of trypan blue. The vitality of the cells must be >95%.
Determination of cell concentration: 10 μl of granulocyte cell suspension are dyed using 990 μl aqueous TURKS solution (Merck) and quantified in a “Neubauer” chamber (Assistent, Germany).
Sample preparation: samples are dissolved in an appropriate amount of ethanol p.a. to be added to the test mixture resulting in screening concentrations of 50 μM for pure compounds and 20 μg/ml for crude. The commercially available 5-LOX inhibitor zileuton (Sequoia Research Products Ltd., UK) is used as a positive control at a concentration of 10 μM representing its IC50 in this test system.
Incubation procedure: The incubation mixture in a 96-well flat bottom microtitre plate (Bibby Sterilin, Staffordshire, UK) consists of 265 μl leukocyte suspension, with 75.5 μM CaCl2, 0.152 μM […] (ETYA) as an inhibitor of the 12-LOX pathway, 0.642 μM Ca ionophore A23187 and 4.43 μM arachidonic acid, the substrate of the 5-LOX pathway, along with 5 μl of each test solution or 5 μl of EtOH p.a. in control wells. After incubation for 10 min at 37° C. in darkness, the reaction is stopped by addition of 20 μl of 10% formic acid. The microtitre plate is centrifuged for 15 min at 1400 rpm to separate free LTB4 from cellular particles before the supernatant is diluted 40 fold in EIA buffer and applied to a competitive LTB4 EIA kit (Assay Designs Inc.).
LTB4 EIA: The plate is incubated for 2 hours at room temperature on an orbital shaker. […]

| SMILES | IC50 [µM] | inhibition at 50 µM [%] | IC50 LT assay |
| --- | --- | --- | --- |
| CC(C)c1ccc2c(c1)CCC1C(C)(C(=O)O)CCCC21C (stereo not shown) [Dehydroabietic acid] | 44.6 | 47.9 ± 8.4 |  |
| CC(C)c1ccc2c(c1)CCC1C(C)(CO)CCCC21C (stereo not shown) [Dehydroabietinol] | 10.9 | 94.5 ± 1.4 |  |
| C=C[C@@]1(C)CC[C@H]2C(=CC[C@@H]3[C@]2(C)CCC[C@@]3(C)C(=O)O)C1 [Isopimaric acid] | 10.2 | 98.1 ± 0.5 |  |
| C=CC(C)(O)CCC1C(=C)CC(O)C2C(C)(C)CCCC12C (stereo not shown) [Larixol] | > 125 | 32.7 ± 5 | inactive |
| C=CC(C)(O)CCC1C(=C)CC(OC(C)=O)C2C(C)(C)CCCC12C (stereo not shown) [Larixyl acetate] | 10.4 | 98.1 ± 0.1 |  |
| CC(C)C1=CC2=C(CC1)C1(C)CCCC(C)(C(=O)O)C1CC2 (stereo not shown) [Palustric acid] | 17.8 | 66.7 ± 3.1 |  |
